# Assay results: EP0435794A1, “Alkenyl- or heteroaryl thio, sulfone, sulfoxy herbicides” (RHONE-POULENC AGROCHIMIE, priority 1989, dated 1991)
# Experiments:
# Assay type in all cases: in vivo
# [1] = test system: Alopecurus myosuroides; test: Exemple C: selectivity test in field crops, pre-emergence (weed); conditions: 24 days
# Excerpt: (§1) Exemple C - Essai de sélectivité en grandes cultures avec application herbicide, en prélevée des espèces végétales
# (§2) Dans des pots de 7 X 7 X 8 cm remplis de terre agricole légère, on sème un nombre de graines déterminé en fonction de l'espèce végétale et de la grosseur de la graine.
# (§3) On recouvre ensuite les graines d'une couche de terre d'environ 3 mm d'épaisseur.
# (§4) Les pots sont alors traités par pulvérisation de bouillie en quantité correspondant à une dose volumique d'application de 500 l/ha et contenant la matière active à la concentration désirée.
# (§5) La bouillie a été préparée de la même manière qu'à l'exemple A.
# (§6) Les pots traités sont ensuite placés dans des bacs destinés à recevoir l'eau d'arrosage, en subirrigation, et maintenus pendant 24 jours à température ambiante sous 70 % d'humidité relative.
# (§7) Le relevé est effectué de la façon suivante:
# (§8) Au bout de 24 jours, on mesure un pourcentage (D) de destruction du nombre de pieds dans le pot traité par rapport au nombre de plantes dans les pots non traités (témoin). On mesure, sur les plantes traitées restantes, le pourcentage de réduction de taille (RT) par rapport aux plantes témoins.
# (§9) Le pourcentage de volume foliaire non détruit par le produit est donc donné par la formule: ([100-D] X [100-RT])/(100)= A [formula]
# (§10) Cette valeur A est transformée en notation de 0 à 5 selon l'échelle suivante:
# (§11) Ainsi, un produit est jugé comme sélectif vis à vis de la culture lorsque la valeur A notée est de 0 ou 1.
# (§12) Les résultats obtenus sont présentés dans l'exemple C pour des doses d'application de 500, 1000, 2000 ou 4000 g de matière active par hectare selon les produits.
# (§13) Les espèces végétales utilisées dans cet exemple sont: […]
# [2] = test system: Digitaria sanguinalis; test: as above; conditions: 24 days
# Excerpt: as §1, §2, §3, §4, §5, §6, §7, §8, §9, §10, §11, §12, §13
# [3] = test system: Echinochloa crus-galli; test: as above; conditions: 24 days
# Excerpt: as §1, §2, §3, §4, §5, §6, §7, §8, §9, §10, §11, §12, §13
# [4] = test system: Panicum milicaeum; test: as above; conditions: 24 days
# Excerpt: as §1, §2, §3, §4, §5, §6, §7, §8, §9, §10, §11, §12, §13
# [5] = test system: Setaria faberii; test: as above; conditions: 24 days
# Excerpt: as §1, §2, §3, §4, §5, §6, §7, §8, §9, §10, §11, §12, §13
# [6] = test system: Sorghum halepense; test: as above; conditions: 24 days
# Excerpt: as §1, §2, §3, §4, §5, §6, §7, §8, §9, §10, §11, §12, §13
# [7] = test system: blé; test: Exemple C: selectivity test in field crops, pre-emergence (crop); conditions: 24 days, 0 or 1 = selective; note: ranges in brackets are in %
# Excerpt: as §1, §2, §3, §4, §5, §6, §7, §8, §9, §10, §11, §12
# (§14) Les espèces végétales utilisées dans cet exemple sont:
# (§15) Comme on peut le voir sur le tableau de résultats de cet exemple C, de nombreux produits présentent une excellente activité antigraminée de prélevée tout en montrant une excellente sélectivité pour 1 ou 2 ou 3 ou 4 des 4 cultures testées = blé, maïs, riz, soja.
# [8] = test system: maïs; test: as above; conditions: 24 days, 0 or 1 = selective; note: ranges in brackets are in %
# Excerpt: as §1, §2, §3, §4, §5, §6, §7, §8, §9, §10, §11, §12, §14, §15
# [9] = test system: riz; test: as above; conditions: 24 days, 0 or 1 = selective; note: ranges in brackets are in %
# Excerpt: as §1, §2, §3, §4, §5, §6, §7, §8, §9, §10, §11, §12, §14, §15
# [10] = test system: soja; test: as above; conditions: 24 days, 0 or 1 = selective; note: ranges in brackets are in %
# Excerpt: as §1, §2, §3, §4, §5, §6, §7, §8, §9, §10, §11, §12, §14, §15
smiles,measurement,setting,value
C=C(CS(=O)(=O)c1sc(C)nc1C)c1cc(C)cc(C)c1 [compound 46],Notation de l'activité herbicide ALO,[1]; dose 1 Kg m.a./ha,5 (O à 10)
same,Notation de l'activité herbicide DIG,[2]; dose 1 Kg m.a./ha,5 (O à 10)
same,Notation de l'activité herbicide ECh,[3]; dose 1 Kg m.a./ha,4 (10 à 30)
same,Notation de l'activité herbicide PAN,[4]; dose 1 Kg m.a./ha,5 (O à 10)
same,Notation de l'activité herbicide SET,[5]; dose 1 Kg m.a./ha,1 (70 à 90)
same,Notation de l'activité herbicide SOR,[6]; dose 1 Kg m.a./ha,1 (70 à 90)
same,Notation de l'activité herbicide TRZ,[7]; dose 1 Kg m.a./ha,0 (90 à 100)
same,Notation de l'activité herbicide ZEA,[8]; dose 1 Kg m.a./ha,0 (90 à 100)
same,Notation de l'activité herbicide ORY,[9]; dose 1 Kg m.a./ha,0 (90 à 100)
same,Notation de l'activité herbicide GLY,[10]; dose 1 Kg m.a./ha,0 (90 à 100)
"CC(=O)OC(CBr)(CS(=O)(=O)c1sccc1Br)c1ccccc1 (centres unmarked) [compound 60, 2-acétoxy 3-bromo 1-[(3-bromo 2-thiényl)sulfonyl] 2-phényl propane]",Notation de l'activité herbicide ALO,[1]; dose 0.5 Kg m.a./ha,2 (50 à 70)
same,Notation de l'activité herbicide ECh,[3]; dose 0.5 Kg m.a./ha,5 (O à 10)
same,Notation de l'activité herbicide PAN,[4]; dose 0.5 Kg m.a./ha,3 (30 à 50)
same,Notation de l'activité herbicide SET,[5]; dose 0.5 Kg m.a./ha,4 (10 à 30)
same,Notation de l'activité herbicide SOR,[6]; dose 0.5 Kg m.a./ha,5 (O à 10)
same,Notation de l'activité herbicide TRZ,[7]; dose 0.5 Kg m.a./ha,0 (90 à 100)
same,Notation de l'activité herbicide ZEA,[8]; dose 0.5 Kg m.a./ha,0 (90 à 100)
same,Notation de l'activité herbicide ORY,[9]; dose 0.5 Kg m.a./ha,0 (90 à 100)
same,Notation de l'activité herbicide GLY,[10]; dose 0.5 Kg m.a./ha,0 (90 à 100)
C=C(CS(=O)(=O)c1sc(C)nc1C)c1cccc(F)c1 [compound 45],Notation de l'activité herbicide ALO,[1]; dose 1 Kg m.a./ha,5 (O à 10)
same,Notation de l'activité herbicide DIG,[2]; dose 1 Kg m.a./ha,4 (10 à 30)
same,Notation de l'activité herbicide ECh,[3]; dose 1 Kg m.a./ha,5 (O à 10)
same,Notation de l'activité herbicide PAN,[4]; dose 1 Kg m.a./ha,5 (O à 10)
same,Notation de l'activité herbicide SET,[5]; dose 1 Kg m.a./ha,3 (30 à 50)
same,Notation de l'activité herbicide SOR,[6]; dose 1 Kg m.a./ha,5 (O à 10)
same,Notation de l'activité herbicide TRZ,[7]; dose 1 Kg m.a./ha,1 (70 à 90)
same,Notation de l'activité herbicide ZEA,[8]; dose 1 Kg m.a./ha,0 (90 à 100)
same,Notation de l'activité herbicide ORY,[9]; dose 1 Kg m.a./ha,0 (90 à 100)
same,Notation de l'activité herbicide GLY,[10]; dose 1 Kg m.a./ha,0 (90 à 100)
C=C(CS(=O)(=O)C=C(C)C)c1ccccc1 [compound 73],Notation de l'activité herbicide ALO,[1]; dose 2 Kg m.a./ha,4 (10 à 30)
same,Notation de l'activité herbicide DIG,[2]; dose 2 Kg m.a./ha,3 (30 à 50)
same,Notation de l'activité herbicide ECh,[3]; dose 2 Kg m.a./ha,5 (O à 10)
same,Notation de l'activité herbicide PAN,[4]; dose 2 Kg m.a./ha,3 (30 à 50)
same,Notation de l'activité herbicide SET,[5]; dose 2 Kg m.a./ha,0 (90 à 100)
same,Notation de l'activité herbicide SOR,[6]; dose 2 Kg m.a./ha,3 (30 à 50)
same,Notation de l'activité herbicide TRZ,[7]; dose 2 Kg m.a./ha,1 (70 à 90)
same,Notation de l'activité herbicide ZEA,[8]; dose 2 Kg m.a./ha,2 (50 à 70)
same,Notation de l'activité herbicide ORY,[9]; dose 2 Kg m.a./ha,0 (90 à 100)
same,Notation de l'activité herbicide GLY,[10]; dose 2 Kg m.a./ha,0 (90 à 100)
Cc1cc(C(O)(CBr)CS(=O)(=O)c2ccsc2)ccc1F (centres unmarked) [compound 66],Notation de l'activité herbicide ALO,[1]; dose 1 Kg m.a./ha,3 (30 à 50)
same,Notation de l'activité herbicide DIG,[2]; dose 1 Kg m.a./ha,5 (O à 10)
same,Notation de l'activité herbicide ECh,[3]; dose 1 Kg m.a./ha,5 (O à 10)
same,Notation de l'activité herbicide PAN,[4]; dose 1 Kg m.a./ha,3 (30 à 50)
same,Notation de l'activité herbicide SET,[5]; dose 1 Kg m.a./ha,3 (30 à 50)
same,Notation de l'activité herbicide SOR,[6]; dose 1 Kg m.a./ha,5 (O à 10)
same,Notation de l'activité herbicide TRZ,[7]; dose 1 Kg m.a./ha,1 (70 à 90)
same,Notation de l'activité herbicide ZEA,[8]; dose 1 Kg m.a./ha,2 (50 à 70)
same,Notation de l'activité herbicide ORY,[9]; dose 1 Kg m.a./ha,2 (50 à 70)
same,Notation de l'activité herbicide GLY,[10]; dose 1 Kg m.a./ha,1 (70 à 90)
"C=C(CS(=O)(=O)/C=C/C)c1ccccc1 [compound 70, (E)-2-phényl 1-(1-propénylsulfonyl)2-propène]",Notation de l'activité herbicide ALO,[1]; dose 2 Kg m.a./ha,4 (10 à 30)
same,Notation de l'activité herbicide ECh,[3]; dose 2 Kg m.a./ha,5 (O à 10)
same,Notation de l'activité herbicide PAN,[4]; dose 2 Kg m.a./ha,3 (30 à 50)
same,Notation de l'activité herbicide SET,[5]; dose 2 Kg m.a./ha,3 (30 à 50)
same,Notation de l'activité herbicide SOR,[6]; dose 2 Kg m.a./ha,5 (O à 10)
same,Notation de l'activité herbicide TRZ,[7]; dose 2 Kg m.a./ha,2 (50 à 70)
same,Notation de l'activité herbicide ZEA,[8]; dose 2 Kg m.a./ha,0 (90 à 100)
same,Notation de l'activité herbicide ORY,[9]; dose 2 Kg m.a./ha,1 (70 à 90)
same,Notation de l'activité herbicide GLY,[10]; dose 2 Kg m.a./ha,0 (90 à 100)
"O=S(=O)(CC(O)(CBr)c1cccc(F)c1)c1cccs1 (centres unmarked) [compound 53, 1-bromo 2-(3-fluorophényl) 3-(2-thiénylsulfonyl) 2-propanol]",Notation de l'activité herbicide ALO,[1]; dose 0.5 Kg m.a./ha,2 (50 à 70)
same,Notation de l'activité herbicide DIG,[2]; dose 0.5 Kg m.a./ha,4 (10 à 30)
same,Notation de l'activité herbicide ECh,[3]; dose 0.5 Kg m.a./ha,4 (10 à 30)
same,Notation de l'activité herbicide PAN,[4]; dose 0.5 Kg m.a./ha,1 (70 à 90)
same,Notation de l'activité herbicide SET,[5]; dose 0.5 Kg m.a./ha,1 (70 à 90)
same,Notation de l'activité herbicide SOR,[6]; dose 0.5 Kg m.a./ha,4 (10 à 30)
same,Notation de l'activité herbicide TRZ,[7]; dose 0.5 Kg m.a./ha,0 (90 à 100)
same,Notation de l'activité herbicide ZEA,[8]; dose 0.5 Kg m.a./ha,2 (50 à 70)
same,Notation de l'activité herbicide ORY,[9]; dose 0.5 Kg m.a./ha,3 (30 à 50)
same,Notation de l'activité herbicide GLY,[10]; dose 0.5 Kg m.a./ha,0 (90 à 100)
